This is an account of results in ChEMBL document CHEMBL4400566, “Discovery of new ureido benzenesulfonamides incorporating 1,3,5-triazine moieties as carbonic anhydrase I, II, IX and XII inhibitors” (Bioorg Med Chem, 2019).

This test concerns the target Carbonic anhydrase 9 (Homo sapiens, UniProt Q16790).
Description: Inhibition of recombinant human carbonic anhydrase 9 incubated for 15 mins prior to testing measured for 5 to 10 secs by phenol red-based stopped-flow CO2 hydration assay
`NS(=O)(=O)c1ccc(NC(=O)Nc2nc(Cl)nc(Nc3ccc(Cl)cc3)n2)cc1`: the affinity corresponds to a Ki of 44 nM.
For the compound `NS(=O)(=O)c1ccc(NC(=O)Nc2nc(Nc3ccc(Cl)cc3)nc(N3CCOCC3)n2)cc1`, the inhibitory constant (Ki) (as a rule, the dissociation constant of the complex between target and ligand, obtained from inhibition or displacement) was determined as 28.6 nM.
`CN(C)c1nc(NC(=O)Nc2ccc(S(N)(=O)=O)cc2)nc(Nc2ccccc2)n1` showed a Ki of 19 nM. Against the preceding compound, the Ki is about 1.5-fold lower.
`CN(C)c1nc(NC(=O)Nc2ccc(S(N)(=O)=O)cc2)nc(Nc2ccc(F)cc2)n1`: the Ki was 66.9 nM.
Compound `NS(=O)(=O)c1ccc(NC(=O)Nc2nc(Nc3ccc(S(N)(=O)=O)cc3)nc(N3CCOCC3)n2)cc1` showed an inhibition constant Ki of 24.9 nM.
For the compound `NS(=O)(=O)c1ccc(NC(=O)Nc2nc(Cl)nc(Nc3ccc(S(N)(=O)=O)cc3)n2)cc1`, the Ki turned out to be 11.8 nM.
With `CN(C)c1nc(NC(=O)Nc2ccc(S(N)(=O)=O)cc2)nc(Nc2ccc(Cl)c(Cl)c2)n1`, affinity was put at a Ki of 23.5 nM.
Next, `NS(=O)(=O)c1ccc(NC(=O)Nc2nc(Nc3ccc(S(N)(=O)=O)cc3)nc(N3CCCCC3)n2)cc1`: 28.4 nM; `NS(=O)(=O)c1ccc(NC(=O)Nc2nc(Cl)nc(Nc3ccc(F)cc3)n2)cc1`: 46.8 nM; `NS(=O)(=O)c1ccc(NC(=O)Nc2nc(Nc3ccc(Cl)cc3)nc(N3CCCCC3)n2)cc1`: 43.3 nM.
In turn, `NS(=O)(=O)c1ccc(NC(=O)Nc2nc(Nc3ccc(F)cc3)nc(N3CCOCC3)n2)cc1` returned an inhibition constant Ki of 185 nM.
As to `CN(C)c1nc(NC(=O)Nc2ccc(S(N)(=O)=O)cc2)nc(Nc2ccc(S(N)(=O)=O)cc2)n1`, the affinity corresponds to a Ki of 14.6 nM.
As to `NS(=O)(=O)c1ccc(NC(=O)Nc2nc(Cl)nc(Nc3ccccc3)n2)cc1`, the affinity, expressed as Ki, was 14.1 nM.
With `NS(=O)(=O)c1ccc(NC(=O)Nc2nc(Nc3ccccc3)nc(N3CCCCC3)n2)cc1`, the affinity corresponds to a Ki of 32.3 nM.
`NS(=O)(=O)c1ccc(NC(=O)Nc2nc(Nc3ccc(Cl)c(Cl)c3)nc(N3CCCCC3)n2)cc1` displayed a Ki of 87.9 nM.
Next, `NS(=O)(=O)c1ccc(NC(=O)Nc2nc(Cl)nc(Nc3ccc(Cl)c(Cl)c3)n2)cc1`: 35.6 nM; `CN(C)c1nc(NC(=O)Nc2ccc(S(N)(=O)=O)cc2)nc(Nc2ccc(Cl)cc2)n1`: 38.1 nM; `NS(=O)(=O)c1ccc(NC(=O)Nc2nc(Nc3ccccc3)nc(N3CCOCC3)n2)cc1`: 36.9 nM.
In turn, `NS(=O)(=O)c1ccc(NC(=O)Nc2nc(Nc3ccc(F)cc3)nc(N3CCCCC3)n2)cc1` returned a Ki of 151 nM.
In turn, `NS(=O)(=O)c1ccc(NC(=O)Nc2nc(Nc3ccc(Cl)c(Cl)c3)nc(N3CCOCC3)n2)cc1` gave a Ki of 105 nM. This Ki and that of the compound before are within 1.5-fold of each other.
